Experimental data from patent US20210093730A1, “BIOMARKERS FOR ANTIBODY-DRUG CONJUGATE MONOTHERAPY OR COMBINATION THERAPY” (Immunomedics, Inc., priority 2019, published 2021).
Like-named read-outs stand apart in the source and are kept apart here.

Legend:
[1] = in vivo
[2] = test system: metastatic urothelial cancer; settings: cited from earlier work
[3] = test system: platinum-resistant urothelial carcinoma; assay: Clinical trial of sacituzumab govitecan in 6 patients with metastatic platinum-resistant urothelial carcinoma (PRUC)
Protocol: Response was assessed using the Response Evaluation Criteria in Solid Tumors, version 1.1.

[4] = test system: platinum-resistant urothelial carcinoma; settings: 6 patients; cited from earlier work
[5] = test system: metastatic urothelial cancer; assay: Further study of sacituzumab govitecan in metastatic urothelial cancer (mUC), 32 pts enrolled; type: in vivo, human
From the text: Response-evaluable pts received ≥2 doses, and had ≥1 post-baseline response assessment.

[6] = test system: metastatic triple-negative breast cancer (TNBC); assay: Phase I/II clinical trial (NCT01631552) of sacituzumab govitecan in relapsed/refractory metastatic TNBC; type: in vivo, human
Protocol: Patients with relapsed/refractory TNBC who had previously failed at at least one prior line of therapy were enrolled in a single-arm, multicenter trial (Bardia et al., 2019, N Engl J Med 380:741-51). The present study reports on 108 patients who had failed at least two prior lines of therapy (median three prior therapies) (Bardia et al., 2019, N Engl J Med 380:741-51). […] Of the 108 patients, 107 were female and 1 was male, with a median age of 55. […] Tumor staging was performed by computed tomography (CT) and MRI at baseline, followed up at 8 week intervals from the start of treatment until disease progression.

[7] = test system: metastatic triple-negative breast cancer (TNBC); settings: second line or later; cited from earlier work
[8] = Pharmacokinetics in patient serum: ELISA for IgG and intact conjugate, HPLC for SN-38; type: in vivo, human
Protocol: SN-38 was measured by HPLC.

[9] = test system: non-small cell lung cancer (NSCLC); settings: cited from earlier work
[10] = 36 patients with objective response
[11] = any grade, 108 patients, 10 mg/kg

sacituzumab govitecan
SN-38 released daily [1]: 50% | CR (complete response) ([2]; 25 assessable patients): 1 patients | ORR ([2]; 25 assessable patients): 36% | PR (partial response) ([2]; 25 assessable patients): 8 patients | ORR, 1 line of prior chemotherapy ([2]; in vivo): 53.8% | ORR, two or more prior therapies ([2]; in vivo): 16.7% | median PFS ([2]; in vivo): 7.2 months | grade 4 non-hematologic toxicities ([3]; 6 patients): No grade 4 non-hematologic toxicities were observed | tolerability ([3]; 6 patients): generally well tolerated | patients with a clinically significant response ([3]; of 6 patients): 3 patients | patients with grade 3 toxicities (flank pain and bacteremia) ([3]; of 6 patients): Two | patients with progressive disease ([3]; of 6 patients): 3 patients | patients with partial response ([3]; of 6 patients, RECIST 1.1): Two | reduction in target lesions, patient with progressive disease because of a new lesion ([3]; one patient): 12% | reduction in target lesions, patient with stable disease ([3]; one patient): 28% | reduction in target lesions, best responder ([3]; partial response, including liver metastases): 38% | clinically significant response [4]: 50% | ORR, pts with 1 line of prior chemotherapy ([5]; 7/13): 53.8% | ORR ([5]; 25 assessable pts, 8 or 10 mg/kg days 1 and 8 every 21 days): 36% | grade 3 hypophosphatemia ([5]; 25 pts): 8% | grade 4 neutropenia ([5]; 25 pts): 16% | duration of response for CR/PR pts ([5]; 95% CI 4.1-12.9): 5.1 mos | median PFS ([5]; all patients, 95% CI 4.9-10.7): 7.2 mos | ORR, pts with 2 to 5 prior therapy lines ([5]; in vivo): 16.7% | duration of grade 4 neutropenia ([5]; in vivo): < 7 days | PR among pts with progression after prior IO ([5]; of 4 pts): 1 patients | complete responses (CR) ([5]; of 25 pts): 1 patients | partial responses (PR) ([5]; of 25 pts): 8 patients | pts with stable disease >4 mos ([5]; of the SD pts): 10/11 | response rate among patients who had failed previous checkpoint inhibitor therapy ([6]; 10 mg/kg): 44% | median duration of response [6, 10]: 7.7 months | median time to response [6, 10]: 2.0 months | anemia, grade 3 ([6]; 108 patients, 10 mg/kg): 11% | complete responses (CR) ([6]; 108 patients, 10 mg/kg): 2.8% | decreased white blood cell count, grade 4 ([6]; 108 patients, 10 mg/kg): 3% | diarrhea, grade 3 ([6]; 108 patients, 10 mg/kg): 8% | fatigue, grade 3 ([6]; 108 patients, 10 mg/kg): 8% | hyperglycemia, grade 4 ([6]; 108 patients, 10 mg/kg): 1% | median overall survival ([6]; 108 patients, 10 mg/kg): 13.0 months | median progression-free survival ([6]; 108 patients, 10 mg/kg): 5.5 months | nausea, grade 3 ([6]; 108 patients, 10 mg/kg): 6% | neutropenia, grade 3 ([6]; 108 patients, 10 mg/kg): 26% | neutropenia, grade 4 ([6]; 108 patients, 10 mg/kg): 16% | vomiting, grade 3 ([6]; 108 patients, 10 mg/kg): 6% | response rate (CR+PR) ([6]; 108 patients, >=2 prior lines, 10 mg/kg, local assessment): 33.3% | anemia, % of patients [6, 11]: 50% | diarrhea, % of patients [6, 11]: 62% | fatigue, % of patients [6, 11]: 55% | nausea, % of patients [6, 11]: 67% | neutropenia, % of patients [6, 11]: 64% | vomiting, % of patients [6, 11]: 49% | patients with long-term responses of more than 12 months ([6]; as of data cutoff): 6 patients | estimated probability that a patient would exhibit a response ([6]; at 6 months): 59.7% | estimated probability that a patient would exhibit a response ([6]; at 12 months): 27.0% | patients who discontinued treatment due to adverse events ([6]; of 108 patients): Three | median progression-free survival (PFS) [7]: 5.5 months | overall survival (OS) [7]: 13.0 months | response rate [7]: 33.3% | clearance of intact conjugate compared with the IgG ([8]; ELISA): cleared more quickly than the IgG | SN-38 in the serum bound to the IgG ([8]; HPLC, Unbound and TOTAL, non-glucuronidated form): > 95% | clearance of the conjugate from the serum ([8]; patients): ≤ 3 days | clinical benefit rate ([9]; 47 patients): 43% | ORR ([9]; 47 response assessable patients, median three prior therapies): 19% | median OS ([9]; human, in vivo): 9.5 months | median PFS ([9]; human, in vivo): 5.2 months
